Experimental data: the supplement of paper PMC10307832

Columns and labels:
Assay in all cases: relative viability (nuclei count vs DMSO), 5 days (fraction); higher = more cells survive
FG-4592 + Alpelisib = compound: Cc1nc(C(=O)NCC(=O)O)c(O)c2ccc(Oc3ccccc3)cc12 [FG-4592] + Cc1nc(NC(=O)N2CCC[C@H]2C(N)=O)sc1-c1ccnc(C(C)(C)C(F)(F)F)c1 [Alpelisib] (partner 2 µM)
Summary of the method: (§1)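 Medians of duplicate plates are given as relative viability. That measure is the nuclei count in treated wells divided by the count in vehicle wells. Counts were taken on 4× images of lung cancer cell lines in 1536-well plates, 5 days after pin-tool dosing the day after seeding with one drug alone or a fixed anchor-drug dose plus five library-drug doses (not always all listed) in √10 steps.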

FG-4592 + Olaparib = compound: Cc1nc(C(=O)NCC(=O)O)c(O)c2ccc(Oc3ccccc3)cc12 [FG-4592] + O=C(c1cc(Cc2n[nH]c(=O)c3ccccc23)ccc1F)N1CCN(C(=O)C2CC2)CC1 [Olaparib] (partner 8 µM)
Summary of the method: as §1

FG-4592 + Tozasertib = compound: Cc1nc(C(=O)NCC(=O)O)c(O)c2ccc(Oc3ccccc3)cc12 [FG-4592] + Cc1cc(Nc2cc(N3CCN(C)CC3)nc(Sc3ccc(NC(=O)C4CC4)cc3)n2)n[nH]1 [Tozasertib] (partner 0.1 µM)
Summary of the method: as §1

IU1-47 + Lapatinib = compound: CC1=CC(=C(N1C2=CC=C(C=C2)Cl)C)C(=O)CN3CCCCC3 [IU1-47] + CS(=O)(=O)CCNCc1ccc(-c2ccc3ncnc(Nc4ccc(OCc5cccc(F)c5)c(Cl)c4)c3c2)o1 [Lapatinib] (partner 2 µM)
Summary of the method: as §1

NCI-H3122
relative viability (FG-4592 + Alpelisib; first compound 0.08 µM): 0.861 | relative viability (FG-4592 + Alpelisib; first compound 0.253 µM): 0.764 | relative viability (FG-4592 + Alpelisib; first compound 0.8 µM): 0.665 | relative viability (FG-4592 + Alpelisib; first compound 2.53 µM): 0.781 | relative viability (FG-4592 + Alpelisib; first compound 8 µM): 0.733 | relative viability (FG-4592 + Olaparib; first compound 0.08 µM): 0.637 | relative viability (FG-4592 + Olaparib; first compound 0.253 µM): 0.606 | relative viability (FG-4592 + Olaparib; first compound 0.8 µM): 0.681 | relative viability (FG-4592 + Olaparib; first compound 2.53 µM): 0.656 | relative viability (FG-4592 + Olaparib; first compound 8 µM): 0.661 | relative viability (FG-4592 + Tozasertib; first compound 0.08 µM): 0.38 | relative viability (FG-4592 + Tozasertib; first compound 0.253 µM): 0.361 | relative viability (FG-4592 + Tozasertib; first compound 0.8 µM): 0.348 | relative viability (FG-4592 + Tozasertib; first compound 2.53 µM): 0.418 | relative viability (FG-4592 + Tozasertib; first compound 8 µM): 0.35 | relative viability (IU1-47 + Lapatinib; first compound 0.08 µM): 1.06 | relative viability (IU1-47 + Lapatinib; first compound 0.253 µM): 1.06 | relative viability (IU1-47 + Lapatinib; first compound 0.8 µM): 1.06 | relative viability (IU1-47 + Lapatinib; first compound 2.53 µM): 1.09 | relative viability (IU1-47 + Lapatinib; first compound 8 µM): 1.03

PC-3 [JPC-3]
relative viability (FG-4592 + Alpelisib; first compound 0.08 µM): 0.966 | relative viability (FG-4592 + Alpelisib; first compound 0.253 µM): 0.972 | relative viability (FG-4592 + Alpelisib; first compound 0.8 µM): 1.1 | relative viability (FG-4592 + Alpelisib; first compound 2.53 µM): 1 | relative viability (FG-4592 + Alpelisib; first compound 8 µM): 1.03 | relative viability (FG-4592 + Olaparib; first compound 0.08 µM): 1.1 | relative viability (FG-4592 + Olaparib; first compound 0.253 µM): 0.975 | relative viability (FG-4592 + Olaparib; first compound 2.53 µM): 1.1 | relative viability (FG-4592 + Olaparib; first compound 8 µM): 1.12 | relative viability (FG-4592 + Tozasertib; first compound 0.08 µM): 0.872 | relative viability (FG-4592 + Tozasertib; first compound 0.253 µM): 0.854 | relative viability (FG-4592 + Tozasertib; first compound 0.8 µM): 0.935 | relative viability (FG-4592 + Tozasertib; first compound 2.53 µM): 0.901 | relative viability (FG-4592 + Tozasertib; first compound 8 µM): 0.854 | relative viability (IU1-47 + Lapatinib; first compound 0.08 µM): 0.47 | relative viability (IU1-47 + Lapatinib; first compound 0.253 µM): 0.46 | relative viability (IU1-47 + Lapatinib; first compound 0.8 µM): 0.509 | relative viability (IU1-47 + Lapatinib; first compound 8 µM): 0.461

PC-14
relative viability (FG-4592 + Alpelisib; first compound 0.08 µM): 0.979 | relative viability (FG-4592 + Alpelisib; first compound 0.253 µM): 1 | relative viability (FG-4592 + Alpelisib; first compound 0.8 µM): 0.988 | relative viability (FG-4592 + Alpelisib; first compound 2.53 µM): 0.855 | relative viability (FG-4592 + Alpelisib; first compound 8 µM): 0.956 | relative viability (FG-4592 + Olaparib; first compound 0.08 µM): 0.268 | relative viability (FG-4592 + Olaparib; first compound 0.253 µM): 0.289 | relative viability (FG-4592 + Olaparib; first compound 0.8 µM): 0.258 | relative viability (FG-4592 + Olaparib; first compound 2.53 µM): 0.248 | relative viability (FG-4592 + Olaparib; first compound 8 µM): 0.302 | relative viability (FG-4592 + Tozasertib; first compound 0.08 µM): 0.674 | relative viability (FG-4592 + Tozasertib; first compound 0.253 µM): 0.55 | relative viability (FG-4592 + Tozasertib; first compound 0.8 µM): 0.651 | relative viability (FG-4592 + Tozasertib; first compound 2.53 µM): 0.596 | relative viability (FG-4592 + Tozasertib; first compound 8 µM): 0.682 | relative viability (IU1-47 + Lapatinib; first compound 0.08 µM): 0.273 | relative viability (IU1-47 + Lapatinib; first compound 0.253 µM): 0.32 | relative viability (IU1-47 + Lapatinib; first compound 0.8 µM): 0.407 | relative viability (IU1-47 + Lapatinib; first compound 2.53 µM): 0.304 | relative viability (IU1-47 + Lapatinib; first compound 8 µM): 0.304

RERF-LC-KJ
relative viability (FG-4592 + Alpelisib; first compound 0.08 µM): 0.804 | relative viability (FG-4592 + Alpelisib; first compound 0.253 µM): 0.749 | relative viability (FG-4592 + Alpelisib; first compound 0.8 µM): 0.723 | relative viability (FG-4592 + Alpelisib; first compound 2.53 µM): 0.651 | relative viability (FG-4592 + Alpelisib; first compound 8 µM): 0.774 | relative viability (FG-4592 + Olaparib; first compound 0.08 µM): 0.853 | relative viability (FG-4592 + Olaparib; first compound 0.253 µM): 0.913 | relative viability (FG-4592 + Olaparib; first compound 0.8 µM): 0.861 | relative viability (FG-4592 + Olaparib; first compound 2.53 µM): 0.996 | relative viability (FG-4592 + Olaparib; first compound 8 µM): 0.894 | relative viability (FG-4592 + Tozasertib; first compound 0.08 µM): 0.485 | relative viability (FG-4592 + Tozasertib; first compound 0.253 µM): 0.448 | relative viability (FG-4592 + Tozasertib; first compound 0.8 µM): 0.578 | relative viability (FG-4592 + Tozasertib; first compound 2.53 µM): 0.543 | relative viability (FG-4592 + Tozasertib; first compound 8 µM): 0.463 | relative viability (IU1-47 + Lapatinib; first compound 0.08 µM): 0.91 | relative viability (IU1-47 + Lapatinib; first compound 0.253 µM): 0.868 | relative viability (IU1-47 + Lapatinib; first compound 0.8 µM): 0.873 | relative viability (IU1-47 + Lapatinib; first compound 2.53 µM): 0.835 | relative viability (IU1-47 + Lapatinib; first compound 8 µM): 0.829

SK-LU-1
relative viability (FG-4592 + Alpelisib; first compound 0.08 µM): 1.02 | relative viability (FG-4592 + Alpelisib; first compound 0.253 µM): 0.925 | relative viability (FG-4592 + Alpelisib; first compound 0.8 µM): 1.07 | relative viability (FG-4592 + Alpelisib; first compound 8 µM): 0.917 | relative viability (FG-4592 + Olaparib; first compound 0.08 µM): 0.322 | relative viability (FG-4592 + Olaparib; first compound 0.253 µM): 0.396 | relative viability (FG-4592 + Olaparib; first compound 0.8 µM): 0.491 | relative viability (FG-4592 + Olaparib; first compound 2.53 µM): 0.444 | relative viability (FG-4592 + Olaparib; first compound 8 µM): 0.472 | relative viability (FG-4592 + Tozasertib; first compound 0.08 µM): 0.317 | relative viability (FG-4592 + Tozasertib; first compound 0.253 µM): 0.331 | relative viability (FG-4592 + Tozasertib; first compound 0.8 µM): 0.295 | relative viability (FG-4592 + Tozasertib; first compound 2.53 µM): 0.31 | relative viability (FG-4592 + Tozasertib; first compound 8 µM): 0.273 | relative viability (IU1-47 + Lapatinib; first compound 0.08 µM): 0.857 | relative viability (IU1-47 + Lapatinib; first compound 0.253 µM): 0.967 | relative viability (IU1-47 + Lapatinib; first compound 0.8 µM): 0.82 | relative viability (IU1-47 + Lapatinib; first compound 2.53 µM): 0.822 | relative viability (IU1-47 + Lapatinib; first compound 8 µM): 0.839

SK-MES-1
relative viability (FG-4592 + Alpelisib; first compound 0.08 µM): 0.953 | relative viability (FG-4592 + Alpelisib; first compound 0.253 µM): 0.892 | relative viability (FG-4592 + Alpelisib; first compound 0.8 µM): 0.85 | relative viability (FG-4592 + Alpelisib; first compound 2.53 µM): 0.853 | relative viability (FG-4592 + Alpelisib; first compound 8 µM): 0.773 | relative viability (FG-4592 + Olaparib; first compound 0.08 µM): 0.655 | relative viability (FG-4592 + Olaparib; first compound 0.253 µM): 0.624 | relative viability (FG-4592 + Olaparib; first compound 0.8 µM): 0.786 | relative viability (FG-4592 + Olaparib; first compound 2.53 µM): 0.748 | relative viability (FG-4592 + Olaparib; first compound 8 µM): 0.66 | relative viability (FG-4592 + Tozasertib; first compound 0.08 µM): 0.862 | relative viability (FG-4592 + Tozasertib; first compound 0.253 µM): 0.872 | relative viability (FG-4592 + Tozasertib; first compound 0.8 µM): 0.961 | relative viability (FG-4592 + Tozasertib; first compound 2.53 µM): 0.862 | relative viability (FG-4592 + Tozasertib; first compound 8 µM): 0.832 | relative viability (IU1-47 + Lapatinib; first compound 0.08 µM): 0.5 | relative viability (IU1-47 + Lapatinib; first compound 0.253 µM): 0.503 | relative viability (IU1-47 + Lapatinib; first compound 0.8 µM): 0.541 | relative viability (IU1-47 + Lapatinib; first compound 2.53 µM): 0.465 | relative viability (IU1-47 + Lapatinib; first compound 8 µM): 0.45

SW 1573
relative viability (FG-4592 + Alpelisib; first compound 0.08 µM): 0.781 | relative viability (FG-4592 + Alpelisib; first compound 0.253 µM): 0.733 | relative viability (FG-4592 + Alpelisib; first compound 0.8 µM): 0.852 | relative viability (FG-4592 + Alpelisib; first compound 2.53 µM): 0.857 | relative viability (FG-4592 + Alpelisib; first compound 8 µM): 0.616 | relative viability (FG-4592 + Olaparib; first compound 0.08 µM): 0.426 | relative viability (FG-4592 + Olaparib; first compound 0.253 µM): 0.632 | relative viability (FG-4592 + Olaparib; first compound 0.8 µM): 0.597 | relative viability (FG-4592 + Olaparib; first compound 2.53 µM): 0.612 | relative viability (FG-4592 + Olaparib; first compound 8 µM): 0.483 | relative viability (FG-4592 + Tozasertib; first compound 0.08 µM): 0.205 | relative viability (FG-4592 + Tozasertib; first compound 0.253 µM): 0.173 | relative viability (FG-4592 + Tozasertib; first compound 0.8 µM): 0.207 | relative viability (FG-4592 + Tozasertib; first compound 2.53 µM): 0.171 | relative viability (FG-4592 + Tozasertib; first compound 8 µM): 0.198 | relative viability (IU1-47 + Lapatinib; first compound 0.08 µM): 1.08 | relative viability (IU1-47 + Lapatinib; first compound 0.253 µM): 1.06 | relative viability (IU1-47 + Lapatinib; first compound 0.8 µM): 0.894 | relative viability (IU1-47 + Lapatinib; first compound 2.53 µM): 0.966 | relative viability (IU1-47 + Lapatinib; first compound 8 µM): 1.16
